Experimental data published in PubChem BioAssay AID1963848 (Molecular Pharmacology Branch, DTP, NCI, 2024).
pIC50: −log10 of the molar value.

Test system: 379773-124-R-J2-PDC spheroid viability
Experiment: Anticancer human tumor 379773-124-R-J2-PDC patient-derived endometrial carcinoma cell line growth inhibition [POLQ]
Settings: spheroids with HUVEC and MSC; for pIC50: curve of first compound; for viability, T/C: stronger effect = lower value
Method in brief: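 Patient-derived tumour cells were co-cultured with HUVEC and mesenchymal stem cells as multicellular spheroids at 37 °C. They were treated with POLQ inhibitors (novobiocin, ART-558, RP6685) alone or combined with other agents. Top concentrations were at or near clinical Cmax (otherwise 10 microM; SN-38 at 1 microM), decreasing in half-log steps.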

[1] = second compound 0.0316 µM, first compound 0.0316 µM
[2] = second compound 0.0316 µM, first compound 0.1 µM
[3] = second compound 0.0316 µM, first compound 0.316 µM
[4] = second compound 0.0316 µM, first compound 1 µM
[5] = second compound 0.0316 µM, first compound 3.16 µM
[6] = second compound 0.0316 µM, first compound 10 µM
[7] = second compound 0.1 µM, first compound 0.0316 µM
[8] = second compound 0.1 µM, first compound 0.1 µM
[9] = second compound 0.1 µM, first compound 0.316 µM
[10] = second compound 0.1 µM, first compound 1 µM
[11] = second compound 0.1 µM, first compound 3.16 µM
[12] = second compound 0.1 µM, first compound 10 µM
[13] = second compound 0.316 µM, first compound 0.0316 µM
[14] = second compound 0.316 µM, first compound 0.1 µM
[15] = second compound 0.316 µM, first compound 0.316 µM
[16] = second compound 0.316 µM, first compound 1 µM
[17] = second compound 0.316 µM, first compound 3.16 µM
[18] = second compound 0.316 µM, first compound 10 µM
[19] = second compound 1 µM, first compound 0.0316 µM
[20] = second compound 1 µM, first compound 0.1 µM
[21] = second compound 1 µM, first compound 0.316 µM
[22] = second compound 1 µM, first compound 1 µM
[23] = second compound 1 µM, first compound 3.16 µM
[24] = second compound 1 µM, first compound 10 µM
[25] = second compound 3.16 µM, first compound 0.0316 µM
[26] = second compound 3.16 µM, first compound 0.1 µM
[27] = second compound 3.16 µM, first compound 0.316 µM
[28] = second compound 3.16 µM, first compound 1 µM
[29] = second compound 3.16 µM, first compound 3.16 µM
[30] = second compound 3.16 µM, first compound 10 µM
[31] = second compound 10 µM, first compound 0.0316 µM
[32] = second compound 10 µM, first compound 0.1 µM
[33] = second compound 10 µM, first compound 0.316 µM
[34] = second compound 10 µM, first compound 1 µM
[35] = second compound 10 µM, first compound 3.16 µM
[36] = second compound 10 µM, first compound 10 µM
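Further: spheroids exposed to drugs for seven days before readout.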
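Wherever viability, T/C is given: percent viability relative to DMSO vehicle control taken as 100%.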

SMILES: CC1COCCN1c1cc(C2(S(C)(=N)=O)CC2)nc(-c2ccnc3[nH]ccc23)n1 (stereo unspecified) + COC1C(OC(N)=O)C(O)C(Oc2ccc3c(O)c(NC(=O)c4ccc(O)c(CC=C(C)C)c4)c(=O)oc3c2C)OC1(C)C
- pIC50 (second compound 0.0316 µM): 5.72
- pIC50 (second compound 0.1 µM): 5.73
- pIC50 (second compound 0.316 µM): 5.75
- pIC50 (second compound 1 µM): 5.71
- pIC50 (second compound 3.16 µM): 5.75
- pIC50 (second compound 10 µM): 5.78
- viability, T/C [1]: 100%
- viability, T/C [2]: 86.1%
- viability, T/C [3]: 78.5%
- viability, T/C [4]: 78.2%
- viability, T/C [5]: 28.9%
- viability, T/C [6]: 5.71%
- viability, T/C [7]: 92%
- viability, T/C [8]: 85.2%
- viability, T/C [9]: 91.3%
- viability, T/C [10]: 79.9%
- viability, T/C [11]: 24%
- viability, T/C [12]: 5.69%
- viability, T/C [13]: 91.1%
- viability, T/C [14]: 82.1%
- viability, T/C [15]: 77.1%
- viability, T/C [16]: 75.7%
- viability, T/C [17]: 24.9%
- viability, T/C [18]: 7.92%
- viability, T/C [19]: 87%
- viability, T/C [20]: 82.1%
- viability, T/C [21]: 87%
- viability, T/C [22]: 79%
- viability, T/C [23]: 28%
- viability, T/C [24]: 7.44%
- viability, T/C [25]: 78%
- viability, T/C [26]: 88.2%
- viability, T/C [27]: 81.5%
- viability, T/C [28]: 67.5%
- viability, T/C [29]: 32.6%
- viability, T/C [30]: 8.77%
- viability, T/C [31]: 85.6%
- viability, T/C [32]: 74.4%
- viability, T/C [33]: 79.8%
- viability, T/C [34]: 61.7%
- viability, T/C [35]: 34.5%
- viability, T/C [36]: 5.53%

SMILES: CC[C@@]1(O)C(=O)OCc2c1cc1n(c2=O)Cc2cc3c(CN(C)C)c(O)ccc3nc2-1 + Nc1ccc(C#CCN(C(=O)Cc2ncc(C(F)(F)F)cc2C(F)(F)F)c2ccc(F)cc2)nn1
- pIC50 (second compound 0.0316 µM): 7.53
- pIC50 (second compound 0.1 µM): 7.54
- pIC50 (second compound 0.316 µM): 7.59
- pIC50 (second compound 1 µM): 7.58
- pIC50 (second compound 3.16 µM): 7.61
- pIC50 (second compound 10 µM): 7.65
- viability, T/C (second compound 0.0316 µM, first compound 0.000316 µM): 96.7%
- viability, T/C (second compound 0.0316 µM, first compound 0.001 µM): 89%
- viability, T/C (second compound 0.0316 µM, first compound 0.00316 µM): 80.7%
- viability, T/C (second compound 0.0316 µM, first compound 0.01 µM): 96%
- viability, T/C [1]: 47.3%
- viability, T/C [2]: 22.3%
- viability, T/C (second compound 0.1 µM, first compound 0.000316 µM): 90.8%
- viability, T/C (second compound 0.1 µM, first compound 0.001 µM): 87.6%
- viability, T/C (second compound 0.1 µM, first compound 0.00316 µM): 91.4%
- viability, T/C (second compound 0.1 µM, first compound 0.01 µM): 89.6%
- viability, T/C [7]: 46.7%
- viability, T/C [8]: 19.8%
- viability, T/C (second compound 0.316 µM, first compound 0.000316 µM): 93%
- viability, T/C (second compound 0.316 µM, first compound 0.001 µM): 96.3%
- viability, T/C (second compound 0.316 µM, first compound 0.00316 µM): 102%
- viability, T/C (second compound 0.316 µM, first compound 0.01 µM): 86.2%
- viability, T/C [13]: 42.6%
- viability, T/C [14]: 20.8%
- viability, T/C (second compound 1 µM, first compound 0.000316 µM): 100%
- viability, T/C (second compound 1 µM, first compound 0.001 µM): 92%
- viability, T/C (second compound 1 µM, first compound 0.00316 µM): 92.2%
- viability, T/C (second compound 1 µM, first compound 0.01 µM): 83.7%
- viability, T/C [19]: 43.6%
- viability, T/C [20]: 21.2%
- viability, T/C (second compound 3.16 µM, first compound 0.000316 µM): 110%
- viability, T/C (second compound 3.16 µM, first compound 0.001 µM): 90.5%
- viability, T/C (second compound 3.16 µM, first compound 0.00316 µM): 85.8%
- viability, T/C (second compound 3.16 µM, first compound 0.01 µM): 85.1%
- viability, T/C [25]: 39.6%
- viability, T/C [26]: 18.9%
- viability, T/C (second compound 10 µM, first compound 0.000316 µM): 94%
- viability, T/C (second compound 10 µM, first compound 0.001 µM): 79.9%
- viability, T/C (second compound 10 µM, first compound 0.00316 µM): 81.9%
- viability, T/C (second compound 10 µM, first compound 0.01 µM): 83.3%
- viability, T/C [31]: 36%
- viability, T/C [32]: 21.8%

SMILES: CC1COCCN1c1cc(-c2ccnn2C)c2ccnc(-c3ccn[nH]3)c2n1 (stereo unspecified) + COC1C(OC(N)=O)C(O)C(Oc2ccc3c(O)c(NC(=O)c4ccc(O)c(CC=C(C)C)c4)c(=O)oc3c2C)OC1(C)C
- pIC50 (second compound 0.0316 µM): 7.11
- pIC50 (second compound 0.1 µM): 7.09
- pIC50 (second compound 0.316 µM): 6.98
- pIC50 (second compound 1 µM): 7.13
- pIC50 (second compound 3.16 µM): 6.95
- pIC50 (second compound 10 µM): 7.08
- viability, T/C [1]: 75.7%
- viability, T/C [2]: 42.4%
- viability, T/C [3]: 10.5%
- viability, T/C [4]: 9.05%
- viability, T/C [5]: 8.71%
- viability, T/C [6]: 5.49%
- viability, T/C [7]: 85.5%
- viability, T/C [8]: 42.1%
- viability, T/C [9]: 9.78%
- viability, T/C [10]: 8.09%
- viability, T/C [11]: 9.06%
- viability, T/C [12]: 6.55%
- viability, T/C [13]: 82.7%
- viability, T/C [14]: 51.4%
- viability, T/C [15]: 11.2%
- viability, T/C [16]: 7.55%
- viability, T/C [17]: 8.92%
- viability, T/C [18]: 7.56%
- viability, T/C [19]: 83.3%
- viability, T/C [20]: 38.1%
- viability, T/C [21]: 9.64%
- viability, T/C [22]: 8.17%
- viability, T/C [23]: 9.6%
- viability, T/C [24]: 5.36%
- viability, T/C [25]: 64.1%
- viability, T/C [26]: 54%
- viability, T/C [27]: 11.1%
- viability, T/C [28]: 7.3%
- viability, T/C [29]: 8.49%
- viability, T/C [30]: 6.71%
- viability, T/C [31]: 86.9%
- viability, T/C [32]: 42.7%
- viability, T/C [33]: 10.4%
- viability, T/C [34]: 7.51%
- viability, T/C [35]: 9.13%
- viability, T/C [36]: 5.64%
